This note sets out measurements from US9706770B2, “Rodenticide bait comprising difenacoum and method for controlling target rodent pests” (priority 2014, dated 2017).

A short description of series [1]: Hepatic persistence of trans and cis stereoisomers after a single per os dose of a mixture (Table 1). It counts as in vivo, rat. The settings on record: male Sprague Dawley rats, mixture 56% trans/44% cis, 5.2 mg difenacoum/kg per os on D0, mean of 4 rats. As to the method:
On D0 per os tube feeding is performed on male laboratory rats (Sprague Dawley rats, Charles River, Saint germain sur 1′ Arbresle, France) aged 8 weeks and with a body mass of the order of 200 g with a mixture comprising 56% of trans-difenacoum and 44% of cis-difenacoum in an amount of 5.2 mg of difenacoum per kilogram of rat. The rats are kept alive by daily subcutaneous injection of a solution of vitamin K in an amount of 1 U per rat. On D+1, D+3, D+5, D+7, D+10, D+14 and D+21, 4 rats are anaesthetised with isoflurane and then sacrificed, and the livers are removed and frozen until analysed.

The subject of series [2] is Sprague Dawley male rats. The experiment in a line: Coagulation time (Quick time) after a single per os dose of purified cis- or trans-difenacoum. The series is classed as in vivo, rat. As to the method:
The comparative study of the rodenticidal efficacy of purified trans-difenacoum and purified cis-difenacoum is carried out by administration by means of a stomach tube (per os): • of a solution of cis-difenacoum to a first group of four “Sprague Dawley” male rats weighing between 180 and 220 g, and • of a solution of trans-difenacoum to a second group of four “Sprague Dawley” male rats weighing between 180 and 220 g.
These solutions of cis-difenacoum and trans-difenacoum are obtained by weighing cis-difenacoum or trans-difenacoum and dilution in a mixture formed from 95% vegetable oil and 5% DMSO.
The doses of cis-difenacoum and trans-difenacoum used are 2.6 mg of cis-difenacoum or trans-difenacoum per kilogram of rat. The dose of 2.6 mg of cis-difenacoum and trans-difenacoum per kilogram of rat corresponds to 4 times the median lethal dose (LD50) of difenacoum for rats. The dose of 5.2 mg of cis-difenacoum or trans-difenacoum per kilogram of rat corresponds to 8 times the median lethal dose (LD50) of difenacoum for rats.
3 ml blood samples are taken from the rats anaesthetised with isoflurane in sample tubes containing citrate (3.2%). The tubes are centrifuged at 2,000 g for 10 minutes and the plasma fraction is collected.
The coagulation time (Quick time) of the plasma is analysed by means of the “Neoplastine CI Determination of Prothrombin Time” kit (Diagnostica Stago, Asnière, France) by measurement on a Thrombotimer option 2 plus (Behnk Electronik, Norderstedt, Germany).
The normal value for the coagulation time of untreated rats is 10 to 20 seconds.

In series [3] the target is T1, recombinant enzyme rVKORC1 (Rattus norvegicus, UniProt Q6TEK4).
T1 sequence (Q6TEK4 1-161): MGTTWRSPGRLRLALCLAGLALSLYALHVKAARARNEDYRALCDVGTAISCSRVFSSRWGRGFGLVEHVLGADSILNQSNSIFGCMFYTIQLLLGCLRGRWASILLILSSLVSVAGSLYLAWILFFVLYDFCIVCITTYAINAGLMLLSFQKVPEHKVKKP
The experiment in a line: Inhibition constant of the recombinant enzyme rVKORC1. The series is classed as biochemical. As to the method:
In addition, the value of the inhibition constant (Kicis=60 nM) of the recombinant enzyme rVKORC1 by cis-difenacoum is similar to the value of the inhibition constant of rVKORC1 by trans-difenacoum (Kitrans=30 nM).

A short description of series [4]: in vivo. Also on record: species or system rat. Conditions: male rats, control composition 56% cis/44% trans, 5.2 mg difenacoum/kg per os on D0; for hepatic concentration: from D+3. As to the method:
(§1) On D0 a control composition of the prior art comprising a molar proportion of cis-difenacoum of 56% and a molar proportion of trans-difenacoum of 44% is administered per os to seven groups of four male laboratory rats (Sprague Dawley rats, Charles River, Saint germain sur l'Arbresle, France) weighing between 180 and 220 g in an amount of 5.2 mg of difenacoum per kilogram of rat. On D+1, D+3, D+5, D+7, D+10, D+14 and D+21, 4 rats are sacrificed. The livers are removed and weighed. A liquid/solid extraction of difenacoum with acetone is performed. The difenacoum is analysed by HPLC on a C8 (250 mm×10 mm) column kept at 30° C. with a mobile phase formed from 80% acetonitrile and 20% acid water. The flow rate of the mobile phase is kept at 2 ml/min and the trans-difenacoum and cis-difenacoum are detected by spectrophotometric analysis at the wavelength of 258 nm. The trans-difenacoum and cis-difenacoum are quantified by calibration with known amounts of trans-difenacoum and cis-difenacoum. The results are given in FIG. 3, in which the hepatic persistence of trans-difenacoum is represented by solid squares (▪) and the hepatic persistence of cis-difenacoum is represented by open diamonds (⋄).

The format of series [5] is in vivo, rat. The settings on record: for concentration in the liver: D+1. As to the method: as §1
On D+1 the concentration of cis-difenacoum in the liver of the female rats (9.6 μg/g of liver) is essentially equivalent to the concentration of cis-difenacoum in the liver of the male rats (7.3 μg/g of liver). The concentration on D+1 of trans-difenacoum in the liver of the female rats (3.3 μg/g of liver) is greater than the concentration of trans-difenacoum in the liver of the male rats (0.9 μg/g of liver). […] For the same dosage, the hepatic concentrations of trans-difenacoum are thus higher in the female at least up to three days after treatment (D0).

Series [6] in a line: in vivo. The series is classed as in vivo, rat. Conditions: Sprague Dawley, rat, liver, oral; male rats, one dose per day on D0, D+1, D+2; D+3 (day following the last dose); read-out: hepatic persistence (concentration in the liver). As to the method: (§2) Counting from D0 and for three days (D0, D+1 and D+2), trans-difenacoum in an amount of 0.6 mg/kg, 1.2 mg/kg or 2.6 mg/kg (mg of trans-difenacoum per kilogram of male rat) is administered daily to “Sprague Dawley” male rats weighing between 180 and 220 g. On D+3, the coagulation time of these male rats is measured and the concentration of trans-difenacoum in the liver of these male rats (expressed in μg of trans-difenacoum per g of liver) is analysed.

In series [7] the test system is Sprague Dawley male rats. Put plainly: in vivo. The series is classed as in vivo, rat. The procedure: as §2
Series [8] in a line: in vivo. The series is classed as in vivo, rat. The settings on record: Sprague Dawley, liver, oral, female rats. The procedure: (§3) Counting from D0 and for three days (D0, D+1 and D+2), trans-difenacoum in an amount of 0.3 mg/kg; 0.6 mg/kg; 0.75 mg/kg; 1.2 mg/kg or 2.6 mg/kg (mg of trans-difenacoum per kilogram of female rat) is administered to female “Sprague Dawley” rats in an amount of one dose per day. On D+4, the coagulation time of these female rats is measured and the concentration of trans-difenacoum in the liver (expressed in μg of difenacoum per g of liver) of these female rats is analysed. The administration for three days (D0, D+1 and D+2) in an amount of a dose of trans-difenacoum greater than 0.3 mg/kg/day to female rats achieves at D+4 a high value of the coagulation time (greater than or equal to 500 seconds) in these female rats and a moderate hepatic persistence of less than 10 μg of trans-difenacoum per gram of liver for a dose of less than 2.6 mg/kg.

Series [9] relates to female Sprague Dawley rats. Put plainly: in vivo. It counts as in vivo, rat. The procedure: as §3
Where [10] appears, read: 2.6 mg/kg per os on D0, D+1, untreated 10 to 20 seconds.

pKi: −log10 of the molar value. Read-outs that look alike come from different tables or passages of the source.

As for `O=c1oc2ccccc2c(O)c1C1CC(c2ccc(-c3ccccc3)cc2)Cc2ccccc21` (stereo not drawn) [cis-difenacoum, 3-(biphenyl-4-yl)-1-(4-hydroxycoumarin-3-yl)-1,2,3,4-tetrahydronaphthalene, reference compound], the Hepatic content is 16.82 µg/g in series [1] (D + 1, listed as cis); 8.28 µg/g in [1] (D + 3, listed as cis); 4.86 µg/g in series [1] (D + 5, listed as cis); 1.85 µg/g in series [1] (D + 10, listed as cis); 1.41 µg/g in [1] (D + 21, listed as cis). Further, in the series with Sprague Dawley male rats [2] (setting [10]), the “coagulation time (Quick time)” value was found to be 62 s. Besides, the pKi (in general, the negative decadic logarithm of the Ki, by convention in mol/L) in series [3] was 7.22. This compound came in with a hepatic concentration in the series “in vivo [4]” of 4 µg/g. Moreover, the “concentration in the liver” value is given as 9.6 μg/g of liver in series [5] (female rats) and 7.3 μg/g of liver in series [5] (male rats).
As for `O=c1oc2ccccc2c(O)c1C1CC(c2ccc(-c3ccccc3)cc2)Cc2ccccc21` (stereo not drawn) [trans-difenacoum, 3-(biphenyl-4-yl)-1-(4-hydroxycoumarin-3-yl)-1,2,3,4-tetrahydronaphthalene], the Hepatic content is 4.22 µg/g in series [1] (D + 1); 1.05 µg/g in series [1] (D + 3); 0.25 µg/g in series [1] (D + 5); 0.1 µg/g in series [1] (D + 10); 0.17 µg/g in [1] (D + 21). The “coagulation time (Quick time)” value in the series on Sprague Dawley male rats [2] (setting [10]) is 62 s; with Sprague Dawley male rats [2] (5.2 mg/kg per os on D0, D+1), 84 s. Further, the pKi in series [3] was 7.52. Besides, the concentration at 1 day in “in vivo [4]” (Sprague Dawley, rat, liver, oral, 5.2 mg/kg, D+1, read-out: hepatic concentration) was around 1000 ng/g. In addition, the hepatic concentration result in “in vivo [4]” is “almost undetectable”. Further, in series [5] (D+3), the “concentration in the liver, female rats in comparison with male rats” value is reported as “greater in the female rats”. Besides, the figures for the “concentration in the liver” value in [5] (female rats) and in series [5] (male rats) were 3.3 μg/g of liver and 0.9 μg/g of liver, respectively. For the same compound, the “kinetics of the hepatic elimination, female rats versus male rats” value in series [5] (in particular during the first 3 days) is “slower in the female rats than in the male rats”. Moreover, the concentration at 3 day in “in vivo [6]” is around 2000 ng/g. In the series on Sprague Dawley male rats [7] (considering that the liver contains half the ingested trans-difenacoum), the “amount contained in a rat corpse” value is on record as “about 40 μg”. In addition, the “coagulability of the blood (increase in Quick time)” value in the series on Sprague Dawley male rats [7] (male rat, dosage of 1.2 mg/kg or higher, three daily doses) is on record as “uncoagulable”. In the series with Sprague Dawley male rats [7] (male rat, liver mass taken as of the order of 10 g), the “global amount per liver” value was determined as 20 µg. For the same compound, the Quick time entry with Sprague Dawley male rats [7] (male rats, 0.6, 1.2 or 2.6 mg/kg one dose per day on D0, D+1, D+2, D+3) is “massive increase”. For the same compound, the concentration at 4 day was around 12000 ng/g in the series “in vivo [8]” (2.6 mg/kg per day, 2.6 mg per day and per kilogram of rat for 3 days, read-out: hepatic concentration); below 10000 ng/g in the series “in vivo [8]” (rat, three daily doses of less than 2.6 mg/kg, D+4, read-out: hepatic persistence). Moreover, the “coagulability of the blood (increase in coagulation time)” value in [9] (dosage of 0.6 mg/kg or higher, three daily doses) is on record as “uncoagulable”. For the same compound, the coagulation time result in [9] (dose greater than 0.3 mg/kg/day on D0, D+1, D+2, D+4) is “greater than or equal to 500 seconds”.
